Laboratory results published in the NIST ThermoML archive (doi:10.1016/j.jct.2007.06.014).

Details: Liquid, Bellows volumetry

CCCC [butane]
mass density [kg/m3]
Details | 380 K | 400 K | 420 K | 440 K
3000 kPa | 463.27 | – | – | –
5000 kPa | 474.65 | 437.19 | – | –
10000 kPa | 494.93 | 466.97 | 436.16 | 401.28
20000 kPa | 521.9 | 500.93 | 479.15 | 457.43
30000 kPa | – | 522.83 | 504.89 | 487.23
40000 kPa | 555.85 | 539.73 | 523.9 | 508.57
50000 kPa | – | 553.54 | 539.08 | 525.26
60000 kPa | 579.32 | 565.44 | 551.8 | 539.13
70000 kPa | – | 575.77 | 563.07 | 551.03
80000 kPa | 597.57 | 585.08 | 572.94 | 561.56
90000 kPa | – | 593.33 | 581.86 | 571.14
100000 kPa | 612.79 | 601.18 | 589.89 | 579.66
120000 kPa | 625.93 | 614.9 | 604.27 | 594.85
140000 kPa | 637.29 | 627.05 | 617.11 | 608.04
160000 kPa | 647.82 | 637.77 | 628.25 | 619.73
180000 kPa | 657.28 | 647.6 | 638.65 | 630.34
200000 kPa | 665.98 | 656.49 | 647.73 | 639.98
